These results are taken from patent US20240254508A1, “Multi-Genome Editor Construct and Uses Thereof” (Colossal Biosciences Inc., priority 2023, published 2024).

For one assay, the system named is HEK293T cells. Kind of assay: Transient induction of single module plasmids in HEK293T cells. It is filed as cell-based. The settings on record: 2 μg/ml doxycycline, 120 μg/ml cumate, 10 μM TMP, 6.25 μM shield 1. The protocol:
HEK293T cells were transfected with the single module plasmids comprising the corresponding regulatory element. The HEK293T cells were treated with the corresponding inducers to generate expression of the genome editing enzyme along with the fluorescent marker accompanying each genome editing enzyme. HEK293T cells were transfected with a doxycycline inducible Cas9 editing enzyme, a cumate inducible ABE, a trimethoprim (TMP) inducible CBE, and a shield 1 inducible CGBE.

Assay [1] has as its system Super Editor incorporated HEK293T cells. The assay can be described thus: Editing enzyme induction in Super Editor incorporated HEK293T cells (fluorescent imaging / FACS). It is filed as cell-based. The settings on record: 1/5/10 μg/mL doxycycline, 30/120/300 μg/mL cumate, 10/40/100 μM TMP, 0.25/1.25/6.25 μM Shield 1, 24-72 hours after treatment. The protocol: FIGS. 3A-3D show fluorescence-activated cell sorting (FACS) of individual editor induction by super editor integrated HEK293T cells. FACS analysis was done for doxycycline induced Cas9 expression (FIG. 3A), cumate induced ABE expression (FIG. 3B), trimethoprim induced CBE expression (FIG. 3C), and shield 1 induced CGBE expression (FIG. 3D). Cells were fixed 72 hours after treatment for FACS quantification. Bar graphs plotting the induction ratios of each dose curve are provided for each different genome editor enzyme induction (FIGS. 3A-3D).
Incorporation of Super Editor in HEK293T cells: 300,000 HEK293T cells were transfected by 4 μg of Super Editor plasmid and 3 μg PiggyBac transposase plasmid using 10 μL of Lipofectamine 2000 according to the manufacturer's protocol in a 6-well plate format. 2 μg/mL doxycycline was supplemented to the cells 48 hours in advance. The transfected cells were enriched twice by Fluorescence-activated cell sorting (FACS) gated with doxycycline induced TagRFP657 (far red) fluorescent signals 1 week and 3 weeks after transfection. The 1st enrichment selected the top 0.2% (10,000 cells) of the TagRFP657+ population. The 2nd enrichment selected the top 5% (374,000 cells) of the TagRFP657+ population.
Doxycycline induced Cas9, reported by TagRFP657 (far red); cumate induced ABE, reported by TagBFP (blue); trimethoprim induced CBE reported by, eGFP (green); Shield 1 induced CGBE, reported by mCherry (red). Cells were analyzed by fluorescent imaging or FACS 24-72 hours after treatment. FACS analysis was performed on 4% PFA fixed samples (FIGS. 3A-3D). Inducers were refreshed everyday with new media.

Structures are written as SMILES.

Regarding `CC[C@H](C(=O)N1CCCC[C@H]1C(=O)O[C@H](CCc1ccc(OC)c(OC)c1)c1cccc(OCCN2CCOCC2)c1)c1cc(OC)c(OC)c(OC)c1` [Shield 1], the “expression of genome editing enzyme and fluorescent marker after inducer treatment” value (from here on “expression … after inducer treatment”) in the assay with HEK293T cells was “CGBE and mCherry were expressed”. The “induction of editing enzyme expression, reported by fluorescent protein” value (“induction of editing enzyme expression” for short) in assay [1] was “induced CGBE”.
Regarding `COc1cc(Cc2cnc(N)nc2N)cc(OC)c1OC` [trimethoprim], the “expression … after inducer treatment” value in the assay with HEK293T cells was “CBE and eGFP were expressed”. Further, the “induction of editing enzyme expression” value in assay [1] is on record as “induced CBE”.
As for `CC(C)c1ccc(C(=O)O)cc1` [cumate], in the assay with HEK293T cells, the “expression … after inducer treatment” value was “ABE and BFP were expressed”. Also, in assay [1], the “induction of editing enzyme expression” value was “induced ABE”.
